# Measured values reported in ChEMBL document CHEMBL1221277, “Design, synthesis and anticholinesterase activity of a novel series of 1-benzyl-4-((6-alkoxy-3-oxobenzofuran-2(3H)-ylidene) methyl) pyridinium derivatives” (Bioorg Med Chem, 2010).
# Biological target: Acetylcholinesterase (Electrophorus electricus, UniProt O42275)
# Experiment: Inhibition of electric eel AChE by Ellman's method
# Acetylcholinesterase, sequence (O42275 whole entry): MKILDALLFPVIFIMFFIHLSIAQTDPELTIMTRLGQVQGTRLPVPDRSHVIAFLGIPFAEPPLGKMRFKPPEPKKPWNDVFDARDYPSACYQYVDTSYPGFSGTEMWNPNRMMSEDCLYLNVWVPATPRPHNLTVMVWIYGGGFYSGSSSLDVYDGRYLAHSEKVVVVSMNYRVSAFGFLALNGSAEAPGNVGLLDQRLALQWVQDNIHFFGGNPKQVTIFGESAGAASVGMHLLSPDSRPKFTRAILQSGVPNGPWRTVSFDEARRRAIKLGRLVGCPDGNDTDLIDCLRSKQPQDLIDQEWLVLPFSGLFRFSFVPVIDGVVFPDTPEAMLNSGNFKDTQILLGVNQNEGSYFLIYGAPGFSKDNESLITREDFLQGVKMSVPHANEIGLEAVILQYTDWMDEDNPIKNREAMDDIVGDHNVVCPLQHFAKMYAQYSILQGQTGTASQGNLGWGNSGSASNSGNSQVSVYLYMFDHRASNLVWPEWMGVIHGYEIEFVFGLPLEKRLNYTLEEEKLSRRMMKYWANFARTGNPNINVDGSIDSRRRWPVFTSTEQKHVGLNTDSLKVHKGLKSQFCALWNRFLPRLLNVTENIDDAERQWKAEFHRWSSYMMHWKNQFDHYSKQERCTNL
row,SMILES,IC50 [nM]
1,CCCOc1ccc2c(c1)O/C(=C\c1cc[n+](Cc3ccc(C)cc3)cc1)C2=O,612
2,CCOc1ccc2c(c1)O/C(=C\c1cc[n+](Cc3ccc(C)cc3)cc1)C2=O,790
3,CCCOc1ccc2c(c1)O/C(=C\c1cc[n+](Cc3ccccc3)cc1)C2=O,80
4,CCCOc1ccc2c(c1)O/C(=C\c1cc[n+](Cc3ccccc3F)cc1)C2=O,50
5,CCCOc1ccc2c(c1)O/C(=C\c1cc[n+](Cc3cccc(F)c3)cc1)C2=O,107
6,CCCOc1ccc2c(c1)O/C(=C\c1cc[n+](Cc3ccc(F)cc3)cc1)C2=O,68
7,CCCOc1ccc2c(c1)O/C(=C\c1cc[n+](Cc3ccccc3C)cc1)C2=O,328
8,CCCOc1ccc2c(c1)O/C(=C\c1cc[n+](Cc3cccc(C)c3)cc1)C2=O,234
9,COc1ccc2c(c1)O/C(=C\c1cc[n+](Cc3ccc(C)cc3)cc1)C2=O,475
10,CCOc1ccc2c(c1)O/C(=C\c1cc[n+](Cc3ccccc3)cc1)C2=O,63
11,CCOc1ccc2c(c1)O/C(=C\c1cc[n+](Cc3ccccc3F)cc1)C2=O,32
12,CCOc1ccc2c(c1)O/C(=C\c1cc[n+](Cc3cccc(F)c3)cc1)C2=O,48
13,CCOc1ccc2c(c1)O/C(=C\c1cc[n+](Cc3ccc(F)cc3)cc1)C2=O,51
14,CCOc1ccc2c(c1)O/C(=C\c1cc[n+](Cc3ccccc3C)cc1)C2=O,546
15,CCOc1ccc2c(c1)O/C(=C\c1cc[n+](Cc3cccc(C)c3)cc1)C2=O,399
16,COc1ccc2c(c1)O/C(=C\c1cc[n+](Cc3ccccc3)cc1)C2=O,41
17,COc1ccc2c(c1)O/C(=C\c1cc[n+](Cc3ccccc3F)cc1)C2=O,10
18,COc1ccc2c(c1)O/C(=C\c1cc[n+](Cc3cccc(F)c3)cc1)C2=O,60
19,COc1ccc2c(c1)O/C(=C\c1cc[n+](Cc3ccc(F)cc3)cc1)C2=O,22
20,COc1ccc2c(c1)O/C(=C\c1cc[n+](Cc3ccccc3C)cc1)C2=O,68
21,COc1ccc2c(c1)O/C(=C\c1cc[n+](Cc3cccc(C)c3)cc1)C2=O,123
